Patent publication US7652054B2, “Tricyclic compounds useful as angiotensin II agonists” (Vicore Pharma AB, priority 2001, dated 2010)

Test system: duodenal mucosal alkaline secretion
Assay: Test C: duodenal mucosal alkaline secretion assay
Format: in vivo
Settings: co-administration with title compounds of the Examples, anaesthetised rats
Excerpt: Duodenal Mucosal Alkaline Secretion Assay
Compounds were exposed to the duodenal mucosa in barbiturate-anaesthetised rats prepared for in situ titration of duodenal mucosal alkaline secretion, according to the methodology described by Flemström et al in Am. J. Physiol. (1982) 243, G348.

Cc1cc(Cn2cnc3c2C[C@@H](C(=O)O)N(C(=O)C(c2ccccc2)c2ccccc2)C3)ccc1N(C)C [PD123319]
effect of co-administration on the mucosal alkalisation stimulated by title compounds: blocked
